Data from US20190091180A1, “DOSAGE REGIMEN FOR A S1P RECEPTOR AGONIST” (Novartis AG, priority 2008, published 2019).

Legend:
healthy subjects [1] = conditions: administration of 1.25 mg of FTY720; cited from earlier work
multiple sclerosis = conditions: humans; cited from earlier work
healthy subjects [2] = assay: Double-blind, placebo-controlled dose titration clinical study; heart rate by continuous telemetry; format: in vivo, human
Protocol: A single-center, double-blind, placebo-controlled, dose titration, once-daily, multiple-oral-dose clinical study in healthy subjects was conducted to evaluate the effect of a dosage regimen of FTY720 according to the present invention. A total of 36 subjects were randomly assigned to one of the three groups. Each subject participated in a screening period of maximal 21 days, a baseline period (Day −1), a 9-day dose-administration period, and clinical study completion assessments on Day 10. Subjects were assigned to one of the three groups (dose titration regimen group, placebo control group, or active control group) and received the once daily dose in a double-blinded manner (Table 1). In the dose titration group, increasing once daily doses of Compound A (FTY720), starting at 0.125 mg o.d. and ending at the maximal therapeutic dose of 1.25 mg o.d. were administered on days 1 to 9 of the study according to the schedule shown in Table 1 below. The placebo control group received placebo through out the duration of the study and the active control group received a once daily dose of 1.25 mg of FTY720 on days 1 to 9. [table] Pharmacodynamic and safety assessments are performed up to 24 hours post last dose. Heart rate is monitored via telemetry on Day −1 through Day 10, 24 hour after the last dosing. Heart rhythm is assessed via 24 hr continuous holter monitoring on Day −1, Day 1, and Day 9. For each dosing for each subject, the drug is administered as closely as practically possible to the time administered on Day −1. Safety assessments includes physical examinations, vital signs and body measurements, 12-lead ECG evaluations, standard clinical laboratory evaluations hematology, blood chemistry, urinalysis, adverse event and serious adverse event monitoring. Systolic and diastolic blood pressure and pulse are measured after the subject has rested quietly in the sitting position for at least 3 minutes. Blood pressure is measured at the same arm on each occasion. Standard 12-lead ECGs are recorded at Screening, baseline, 4 hours post-dose on Day 1 and Day 8, and at Study Completion. The variables recorded are: date and time of ECG, heart rate, PR interval, QT interval (uncorrected), QTcB, QRS duration. The overall interpretation is collected with a Yes/No statement to confirm if any clinically relevant abnormalities are present, which needs to be specified further. Subjects remain on continuous telemetry, starting before breakfast on Day −1 and proceeding throughout the administration period up to Day 10 (24 hour after the last dose). Over this ten day duration of continuous heart rate collection for each subject, one heart rate value is obtained every minute (‘minute unit heart rate’), representing the average heart rate value over that minute. The heart rate database for each subject contains approximately 14,400 data points (10 days×24 hr×60 min). 24-hour continuous Holter-ECG data are captured via a digital Holter monitor (12-lead, on Days −1, 1, 6, and 8), and transferred for interpretation and reporting. Holter monitoring starts approximately at 7:00 and the time of dose administration is regarded as the time “0 hours”. Holter “cuts” are derived from the dataset at 1 hour intervals starting from Day −1 and continuing for 24 hours or the end of the cleaned Holter monitoring dataset. Cardiac conduction intervals: arrhythmia monitoring includes the frequency and duration of sinus pauses (>2 sec and >3 sec) and atrio-ventricular blocks. Frequency and duration of atrial and ventricular ectopy and sinus rhythm are also recorded. The daily chronotropic effect is defined as the percent decrease in HRmin (minimum heart rate) between two consecutive days. It is calculated on days 1 to 9.

CCCCCCCCc1ccc(CCC(N)(CO)CO)cc1.Cl [FTY720, 2-amino-2-[2-(4-octylphenyl)ethyl]propane-1,3-diol]
decrease in heart rate (healthy subjects [1]): approximately 8 beats/min (BPM)
efficacy in the treatment of multiple sclerosis (multiple sclerosis): has been demonstrated in humans
additional decrease in daily average heart rate from Day 1 to Day 2 (healthy subjects [2]; active control group, 1.25 mg once daily, Day 1 to Day 2): approximately 3 BPM
decrease in daily average heart rate from Day -1 to Day 1 (healthy subjects [2]; active control group, 1.25 mg once daily, Day -1 to Day 1): approximately 8 BPM
gradual decrease in daily average heart rate per day (healthy subjects [2]; dose titration group 0.125/0.25/0.5/1.25 mg o.d., over the eight day course of the titration): 1-2 BPM per day
heart rate on initiation of 1.25 mg on Day 8 compared to the preceding days (healthy subjects [2]; dose titration group, Day 8, first 1.25 mg dose): does not result in dip in heart rate
daily minimum heart rates during the course of the study (healthy subjects [2]; dose titration regimen compared with 1.25 mg once daily group): improved daily minimum heart rates
negative chronotropic effect on Day 1 of treatment initiation (healthy subjects [2]; dose titration regimen versus 1.25 mg from Day 1): attenuates the negative chronotropic effect
